Experimental data: EP0184322A1, “Benzimidazoles” (SMITH KLINE & FRENCH LABORATORIES LIMITED, priority 1984, dated 1986)

test system: histamine stimulated gastric acid secretion; assay: Rat lumen perfused stomach (modified Ghosh and Schild procedure); assay type: in vivo; conditions: i.d. (intraduodenal) administration
From the text: Using a modification of the procedure described by Ghosh and Schild (Br. J. Pharmacology, 13, 54, 1958), ED . values after either intraduodenal (i.d) or intravenous (i.v) administration were obtained as follows: […]

Question: `COc1ccc2[nH]c([S+]([O-])Cc3ncc(C)c(N4CCOCC4)c3Cl)nc2c1` (stereo not drawn) [Example 6, 2-(4-morpholino-3-chloro-5-methyl-2-pyridylmethylsulphinyl)--5-methoxy-(1H)-benzimidazole] was tested. Which ED50 did it give?
Answer: 1.94 µmol/kg

Question: For `COc1ccc2[nH]c([S+]([O-])Cc3ncc(C)c(N4CCCCC4)c3Cl)nc2c1` (stereo not drawn) [Example 8, 2-(4-piperidino-3-chloro-5-methyl-2-pyridylmethylsulphinyl)--5-methoxy-(1H)-benzimidazole], which ED50 is on record?
Answer: 2.38 µmol/kg

Question: Which ED50 does the source give for `COc1ccc2[nH]c([S+]([O-])Cc3ncc(C)c(N(C)C)c3Cl)nc2c1` (stereo not drawn) [Example 16, 2-(4-dimethylamino-3-chloro-5-methyl-2-pyridylmethylsulphi-nyl)-5-methoxy-(1H)-benzimidazole] here?
Answer: 1.46 µmol/kg

Question: How did the ED50 turn out when `COc1ccc2[nH]c([S+]([O-])Cc3ncc(Br)c(N4CCCCC4)c3C)nc2c1` (stereo not drawn) [Example 22, 2-(4-piperidino-5-bromo-3-methyl-2-pyridylmethylsulphinyl)--5-methoxy-(1 H)-benzimidazole] was run?
Answer: 4.55 µmol/kg

same assay, conditions: iv, i.v. administration

Question: How did the ED50 turn out when `COc1ccc2[nH]c([S+]([O-])Cc3cc(N)c(Br)cn3)nc2c1` (stereo not drawn) [Example 2, 2-(4-amino-5-bromo-2-pyridylmethylsulphinyl)-5-methoxy-(1-H)-benzimidazole] was run?
Answer: 1.46 µmol/kg

Question: For `COc1ccc2[nH]c([S+]([O-])Cc3nccc(N4CCOCC4)c3Cl)nc2c1` (stereo not drawn) [Example 4, 2-(4-morpholino-3-chloro-2-pyridylmethyl-sulphinyl)-5-methoxy-(1 H)-benzimidazole], which ED50 is on record?
Answer: 1.17 µmol/kg

Question: With `COc1ccc2[nH]c([S+]([O-])Cc3ncc(C)c(N4CCCC4)c3Cl)nc2c1` (stereo not drawn) [Example 14, 2-(4-pyrrolidino-3-chloro-5-methyl-2-pyridylmethylsulphinyl)-5-methoxy-(1 H)-benzimidazole] as the molecule, how does the ED50 read?
Answer: 0.82 µmol/kg

Question: With `COc1ccc2[nH]c([S+]([O-])Cc3cc(N4CCCCC4)c(Br)cn3)nc2c1` (stereo not drawn) [Example 18, 2-(4-piperidino-5-bromo-2-pyridylmethylsulphinyl) - 5-methoxy-(1 H)-benzimidazole] as the molecule, how does the ED50 read?
Answer: 0.85 µmol/kg

Question: `COc1ccc2[nH]c([S+]([O-])Cc3nccc(N4CCCCC4)c3Br)nc2c1` (stereo not drawn) [Example 20, 2-(4-piperidino-3-bromo-2-pyridylmethylsulphinyl) - 5-methoxy-(1H)-benzimidazole] was tested. Which ED50 did it give?
Answer: 0.86 µmol/kg
